Results reported in ChEMBL document CHEMBL1201862, “PubChem BioAssay data set” (2004).
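Values below derive from 48-hour exposures of cells grown in 96-well plates, with endpoints linearly interpolated between the two concentrations bracketing the appropriate inhibition level. The concentration for 50% growth inhibition is given as GI50.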 The source made the active and inactive calls. Rule as the data show it: active = GI50 up to about 1.1 µM and inactive = higher.

Assays:
Assay in all cases: DTP human tumour cell line panel, 48 h
ACHN = test system: ACHN
CCRF-CEM = test system: CCRF-CEM
COLO 205 = test system: COLO 205
HCT-15 = test system: HCT-15
HT-29 = test system: HT-29
IGROV-1 = test system: IGROV-1
K562 = test system: K562
KM12 = test system: KM12
M14 = test system: M14
NCI-H460 = test system: NCI-H460
OVCAR-3 = test system: OVCAR-3
OVCAR-4 = test system: OVCAR-4
RPMI-8226 = test system: RPMI-8226
SF-268 = test system: SF-268
SK-MEL-28 = test system: SK-MEL-28
SK-MEL-2 = test system: SK-MEL-2
SN12C = test system: SN12C
SNB-75 = test system: SNB-75
SW-620 = test system: SW-620
UACC-62 = test system: UACC-62

For `N#CC1(Nc2ccc(-c3ccc(NC4(C#N)CCCC4)cc3)cc2)CCCC1`, the GI50 (ACHN) was 34.9 µM (inactive), the GI50 (CCRF-CEM) was 0.0104 µM (active) and the GI50 (COLO 205) was > 100 µM (inactive). The GI50 (HCT-15) was > 100 µM, the GI50 (HT-29) was 77.4 µM (inactive) and the GI50 (IGROV-1) was > 100 µM (inactive). For the same compound, the GI50 (K562) was > 100 µM (inactive), the GI50 (KM12) was > 100 µM (inactive) and the GI50 (M14) was > 100 µM (inactive). The GI50 (NCI-H460) was > 100 µM (inactive), the GI50 (OVCAR-3) was > 100 µM (inactive) and the GI50 (OVCAR-4) was > 100 µM (inactive). The GI50 (RPMI-8226) was > 100 µM (inactive), the GI50 (SF-268) was > 100 µM (inactive) and the GI50 (SK-MEL-28) was > 100 µM (inactive). The GI50 (SK-MEL-2) was > 100 µM (inactive), the GI50 (SN12C) was > 100 µM (inactive) and the GI50 (SNB-75) was > 100 µM (inactive). The GI50 (SW-620) was > 100 µM (inactive) and the GI50 (UACC-62) was > 100 µM (inactive).
`Nc1n[nH]c(Nc2ccc(Cl)cc2)c1P(=O)(c1ccccc1)c1ccccc1` was tested, and the GI50 (ACHN) was 34.4 µM (inactive), the GI50 (CCRF-CEM) was 28.6 µM (inactive) and the GI50 (COLO 205) was 49.4 µM (inactive). The GI50 (HCT-15) was 28.6 µM, the GI50 (HT-29) was 24 µM (inactive) and the GI50 (IGROV-1) was 19.1 µM (inactive). The GI50 (K562) was 64.9 µM (inactive), the GI50 (KM12) was 17.4 µM (inactive) and the GI50 (M14) was 21.3 µM (inactive). For the same compound, the GI50 (NCI-H460) was 21.3 µM (inactive), the GI50 (OVCAR-3) was 18.1 µM (inactive) and the GI50 (OVCAR-4) was 22 µM (inactive). For the same compound, the GI50 (RPMI-8226) was 39.5 µM (inactive), the GI50 (SF-268) was 15.2 µM (inactive) and the GI50 (SK-MEL-28) was 25.7 µM (inactive). For the same compound, the GI50 (SK-MEL-2) was 19.9 µM (inactive), the GI50 (SNB-75) was 21.6 µM (inactive) and the GI50 (SW-620) was 34.3 µM (inactive). The GI50 (UACC-62) was 22.2 µM (inactive).
In the case of `CCCCCOc1ccc(/C=N\c2ccc(CCc3ccc(/N=C/c4ccc(OCCCCC)cc4)cc3)cc2)cc1`, the GI50 (CCRF-CEM) is reported as > 100 µM (inactive), the GI50 (COLO 205) is reported as > 100 µM (inactive) and the GI50 (HCT-15) is reported as > 100 µM. The GI50 (HT-29) was > 100 µM (inactive), the GI50 (IGROV-1) was > 100 µM (inactive) and the GI50 (K562) was > 100 µM (inactive). The GI50 (KM12) was > 100 µM (inactive), the GI50 (NCI-H460) was > 100 µM (inactive) and the GI50 (OVCAR-3) was > 100 µM (inactive). For the same compound, the GI50 (OVCAR-4) was > 100 µM (inactive), the GI50 (RPMI-8226) was > 100 µM (inactive) and the GI50 (SF-268) was > 100 µM (inactive). The GI50 (SK-MEL-28) was > 100 µM (inactive), the GI50 (SK-MEL-2) was > 100 µM (inactive) and the GI50 (SN12C) was > 100 µM (inactive). For the same compound, the GI50 (SNB-75) was > 100 µM (inactive), the GI50 (SW-620) was > 100 µM (inactive) and the GI50 (UACC-62) was > 100 µM (inactive).
With `Cn1c(=O)c2nc(NCCO)cnc2n(C)c1=O` the GI50 (ACHN) was > 100 µM (inactive), the GI50 (CCRF-CEM) was > 100 µM (inactive) and the GI50 (COLO 205) was > 100 µM (inactive). The GI50 (HCT-15) was 85.9 µM, the GI50 (HT-29) was > 100 µM (inactive) and the GI50 (IGROV-1) was > 100 µM (inactive). For the same compound, the GI50 (K562) was 44.2 µM (inactive), the GI50 (KM12) was 27.2 µM (inactive) and the GI50 (M14) was 68.2 µM (inactive). The GI50 (NCI-H460) was 59.7 µM (inactive), the GI50 (OVCAR-3) was 23.3 µM (inactive) and the GI50 (OVCAR-4) was 62.7 µM (inactive). The GI50 (RPMI-8226) was 66.4 µM (inactive), the GI50 (SF-268) was > 100 µM (inactive) and the GI50 (SK-MEL-28) was > 100 µM (inactive). For the same compound, the GI50 (SK-MEL-2) was 26.6 µM (inactive), the GI50 (SN12C) was > 100 µM (inactive) and the GI50 (SNB-75) was 8.73 µM (inactive). The GI50 (SW-620) was 55.6 µM (inactive) and the GI50 (UACC-62) was 37.8 µM (inactive).
